Common to all, as to assay type: cell-based
Assay [1] has as its system Staphylococcus aureus (209P). Kind of assay: Minimum inhibitory concentration, Staphylococcus aureus 209P.
A further assay deals with Pseudomonas aeruginosa. Description: Minimum inhibitory concentration, Pseudomonas aeruginosa (strain not given).
For assay [2], the system named is Pseudomonas aeruginosa (Pd 1). Description: Minimum inhibitory concentration, Pseudomonas aeruginosa (Pd 1).
The subject of assay [3] is Pseudomonas aeruginosa (NCTC 10490). Kind of assay: Minimum inhibitory concentration, Pseudomonas aeruginosa (NCTC 10490). As to conditions: NCTC10490.
Assay [4] has as its system Pseudomonas aeruginosa (Pd 12). Kind of assay: Minimum inhibitory concentration, Pseudomonas aeruginosa (Pd 12).
Assay [5] deals with Pseudomonas aeruginosa (T-3). Description: Minimum inhibitory concentration, Pseudomonas aeruginosa (T-3).
Assay [6] has as its system Pseudomonas aeruginosa (Pd 13). Description: Minimum inhibitory concentration, Pseudomonas aeruginosa (Pd 13).
The subject of assay [7] is Staphylococcus aureus (penicillin G resistant). Kind of assay: Minimum inhibitory concentration, Staphylococcus aureus (penicillin G resistant).
Assay [8] relates to Pseudomonas aeruginosa (NCTC). Kind of assay: Minimum inhibitory concentration, Pseudomonas aeruginosa (NCTC).
The test system of assay [9] is Staphylococcus aureus (No. 87, penicillin G resistant). Kind of assay: Minimum inhibitory concentration, Staphylococcus aureus (No. 87, penicillin G resistant).
Assay [10] concerns Pseudomonas aeruginosa (10490). Kind of assay: Minimum inhibitory concentration, Pseudomonas aeruginosa (10490).

Converted amounts (≈) assume the structure as drawn.

As to `Nc1ccc(C(C(=O)NC2C(=O)N3C(C(=O)[O-])=C(C[n+]4ccccc4)CSC23)S(=O)(=O)O)cc1` (stereo not drawn) [Example 9, sodium 7-[α-sulfo-α-(p-aminophenyl)acctamido]-3-(pyridiniummethyl)ceph-3-em-4-carboxylate], the MIC (in assay [1]; against Pseudomonas aeruginosa) was 5 µg/mL in each case. For the molecule `Cc1cccc[n+]1CC1=C(C(=O)[O-])N2C(=O)[C@@H](NC(=O)C(c3ccccc3)S(=O)(=O)O)[C@H]2SC1` (stereo partly drawn) [Example 5, sodium N-[7-(α-sulfophenylacetamido)-ceph-3-em-3-ylmethyl]-2'-methylpyridinium-4-carboxylate], the MIC in [2] turned out to be 3 µg/mL; in [3], 2 µg/mL.

For `O=C([O-])C1=C(C[n+]2ccccc2)CS[C@@H]2[C@H](NC(=O)C(c3ccccc3)S(=O)(=O)O)C(=O)N12` (some centres unmarked) [Example 1], the MIC in assay [2] came to 2 µg/mL (≈ 4.09 µM); in assay [4], 10 µg/mL (≈ 20.4 µM); in assay [5] it was 5 µg/mL (≈ 10.2 µM); in [3], 1 µg/mL (≈ 2.04 µM); in [6] it was 5 µg/mL (≈ 10.2 µM); in assay [1], 1 µg/mL (≈ 2.04 µM). Moreover, the MIC in [7] turned out to be 2 µg/mL (≈ 4.09 µM). `NC(=O)c1cc[n+](CC2=C(C(=O)[O-])N3C(=O)[C@@H](NC(=O)C(c4ccccc4)S(=O)(=O)O)[C@H]3SC2)cc1` (stereo partly drawn) [Example 3, sodium N-[7-(α-sulfophenylacetamido)ceph-3-em-3-ylmethyl]-4'-carbamoyl-pyridinium-4-carboxylate]: the results for the MIC in [2] and in assay [8] were 1 µg/mL and 0.5 µg/mL, respectively. `O=C([O-])C1=C(C[n+]2ccccc2)CS[C@@H]2[C@H](NC(=O)C(c3ccsc3)S(=O)(=O)O)C(=O)N12` (some centres unmarked) [Example 13]: the minimum inhibitory concentration (MIC) in assay [2] amounted to 2 µg/mL (≈ 4.04 µM); in assay [3], 1 µg/mL (≈ 2.02 µM). In [4], `NC(=O)c1ccc[n+](CC2=C(C(=O)[O-])N3C(=O)[C@@H](NC(=O)C(c4ccccc4)S(=O)(=O)O)[C@H]3SC2)c1` (some centres unmarked) had an MIC of 1 µg/mL (≈ 1.88 µM). In the case of `O=C([O-])C1=C(C[n+]2cccc(C(=O)O)c2)CS[C@@H]2[C@H](NC(=O)C(c3ccccc3)S(=O)(=O)O)C(=O)N12` (some centres unmarked), the MIC in assay [4] is 5 µg/mL (≈ 9.37 µM). Same read-out and setting: for `O=C([O-])C1=C(C[n+]2cccc3ccccc32)CS[C@@H]2[C@H](NC(=O)C(c3ccccc3)S(=O)(=O)O)C(=O)N12` (some centres unmarked) the value was 5 µg/mL (≈ 9.27 µM); for `NNC(=O)c1cc[n+](CC2=C(C(=O)[O-])N3C(=O)[C@@H](NC(=O)C(c4ccccc4)S(=O)(=O)O)[C@H]3SC2)cc1` (some centres unmarked), 10 µg/mL (≈ 18.3 µM). Still for that read-out and setting: for `O=C([O-])C1=C(C[n+]2ccc3ccccc3c2)CS[C@@H]2[C@H](NC(=O)C(c3ccccc3)S(=O)(=O)O)C(=O)N12` (some centres unmarked) the value was 5 µg/mL (≈ 9.27 µM); for `NC(=O)c1cc[n+](CC2=C(C(=O)[O-])N3C(=O)[C@@H](NC(=O)C(c4ccccc4)S(=O)(=O)O)[C@H]3SC2)cc1` (some centres unmarked) [drawing 13], 0.5 µg/mL (≈ 0.939 µM). On to `CCCCC(C(=O)NC1C(=O)N2C(C(=O)[O-])=C(C[n+]3ccccc3)CSC12)S(=O)(=O)O` (centres unmarked) [Example 7], for which the MIC in [9] and in assay [10] was 2 µg/mL (≈ 4.26 µM) each time.
